From the supplement of paper PMC10307832

Columns and labels:
Test in all cases: relative viability (nuclei count vs DMSO), 5 days (fraction); higher = more cells survive
CAP-232 + Luminespib = compound: C[C@H]([C@@H](C(=O)N)NC(=O)[C@@H]1CSSC[C@@H](C(=O)N[C@H](C(=O)N[C@@H](C(=O)N[C@H](C(=O)N1)CCCCN)CC2=CNC3=CC=CC=C32)CC4=CC=C(C=C4)O)NC(=O)[C@@H](CC5=CC=CC=C5)N)O [CAP-232] + CCNC(=O)c1noc(-c2cc(C(C)C)c(O)cc2O)c1-c1ccc(CN2CCOCC2)cc1 [Luminespib] (partner 0.01 µM)
In short: (§1)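 The day after seeding in 1536-well plates, lung cancer cell lines were treated by pin tool with a single drug, or with a fixed anchor-drug dose together with five library-drug doses (not always all listed) in √10 steps. After 5 days, a combined fix-and-stain solution (final 0.05% Triton X-100, 1% formaldehyde, 1 ug/ml Hoechst) was added. Nuclei counted on 4× images gave relative viability as treated counts over vehicle counts, reported as the median of duplicate plates.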

CAP-232 + Pictilisib = compound: C[C@H]([C@@H](C(=O)N)NC(=O)[C@@H]1CSSC[C@@H](C(=O)N[C@H](C(=O)N[C@@H](C(=O)N[C@H](C(=O)N1)CCCCN)CC2=CNC3=CC=CC=C32)CC4=CC=C(C=C4)O)NC(=O)[C@@H](CC5=CC=CC=C5)N)O [CAP-232] + CS(=O)(=O)N1CCN(Cc2cc3nc(-c4cccc5[nH]ncc45)nc(N4CCOCC4)c3s2)CC1 [Pictilisib] (partner 1 µM)
In short: as §1

CAP-232 + Crizotinib = compound: C[C@H]([C@@H](C(=O)N)NC(=O)[C@@H]1CSSC[C@@H](C(=O)N[C@H](C(=O)N[C@@H](C(=O)N[C@H](C(=O)N1)CCCCN)CC2=CNC3=CC=CC=C32)CC4=CC=C(C=C4)O)NC(=O)[C@@H](CC5=CC=CC=C5)N)O [CAP-232] + C[C@@H](Oc1cc(-c2cnn(C3CCNCC3)c2)cnc1N)c1c(Cl)ccc(F)c1Cl [Crizotinib] (partner 1 µM)
In short: as §1

CAP-232 + Phenformin = compound: C[C@H]([C@@H](C(=O)N)NC(=O)[C@@H]1CSSC[C@@H](C(=O)N[C@H](C(=O)N[C@@H](C(=O)N[C@H](C(=O)N1)CCCCN)CC2=CNC3=CC=CC=C32)CC4=CC=C(C=C4)O)NC(=O)[C@@H](CC5=CC=CC=C5)N)O [CAP-232] + N=C(N)NC(=N)NCCc1ccccc1 [Phenformin] (partner 250 µM)
In short: as §1

CAP-232 + Linsitinib = compound: C[C@H]([C@@H](C(=O)N)NC(=O)[C@@H]1CSSC[C@@H](C(=O)N[C@H](C(=O)N[C@@H](C(=O)N[C@H](C(=O)N1)CCCCN)CC2=CNC3=CC=CC=C32)CC4=CC=C(C=C4)O)NC(=O)[C@@H](CC5=CC=CC=C5)N)O [CAP-232] + C[C@]1(O)C[C@@H](c2nc(-c3ccc4ccc(-c5ccccc5)nc4c3)c3c(N)nccn32)C1 [Linsitinib] (partner 1 µM)
In short: as §1

Cell Line | relative viability (CAP-232 + Luminespib; first compound 0.4 µM) | relative viability (CAP-232 + Luminespib; first compound 1.265 µM) | relative viability (CAP-232 + Luminespib; first compound 4 µM) | relative viability (CAP-232 + Luminespib; first compound 12.65 µM) | relative viability (CAP-232 + Pictilisib; first compound 0.4 µM) | relative viability (CAP-232 + Pictilisib; first compound 1.265 µM) | relative viability (CAP-232 + Pictilisib; first compound 4 µM) | relative viability (CAP-232 + Pictilisib; first compound 12.65 µM) | relative viability (CAP-232 + Crizotinib; first compound 0.4 µM) | relative viability (CAP-232 + Crizotinib; first compound 1.265 µM) | relative viability (CAP-232 + Crizotinib; first compound 4 µM) | relative viability (CAP-232 + Crizotinib; first compound 12.65 µM) | relative viability (CAP-232 + Phenformin; first compound 0.4 µM) | relative viability (CAP-232 + Phenformin; first compound 1.265 µM) | relative viability (CAP-232 + Phenformin; first compound 4 µM) | relative viability (CAP-232 + Phenformin; first compound 12.65 µM) | relative viability (CAP-232 + Linsitinib; first compound 0.4 µM) | relative viability (CAP-232 + Linsitinib; first compound 1.265 µM) | relative viability (CAP-232 + Linsitinib; first compound 4 µM) | relative viability (CAP-232 + Linsitinib; first compound 12.65 µM)
ABC-1 | 0.554 | 0.587 | 0.686 | 0.377 | 0.616 | 0.878 | 0.745 | 0.411 | 1.01 | 1.17 | 1.08 | 0.903 | 0.249 | 0.243 | 0.215 | 0.186 | 1.07 | 0.781 | 0.726 | 0.427
COR-L 105 | 0.768 | 0.652 | 0.737 | 0.494 | 0.346 | 0.43 | 0.37 | 0.31 | 0.863 | 0.808 | 0.804 | 0.581 | 0.423 | 0.429 | 0.501 | 0.287 | 0.963 | 0.816 | 1.08 | 0.61
LOU-NH91 | 0.335 | 0.271 | 0.341 | 0.326 | 0.479 | 0.512 | 0.501 | 0.438 | 0.748 | 0.76 | 0.921 | 0.705 | 0.725 | 0.752 | 0.769 | 0.487 | 0.923 | 1.06 | 0.865 | 0.719
NCI-H661 | 0.954 | 0.907 | 0.883 | 0.719 | 0.402 | 0.377 | 0.416 | 0.389 | 1 | 0.947 | 1.05 | 1.13 | 0.262 | 0.268 | 0.278 | 0.227 | 0.488 | 0.659 | 0.575 | 0.462
LU99A | 0.333 | 0.267 | 0.182 | 0.246 | 0.376 | 0.307 | 0.328 | 0.292 | 0.486 | 0.652 | 0.513 | 0.561 | 0.866 | 0.751 | 0.839 | 0.8 | 0.52 | 0.504 | 0.506 | 0.533
UMC-11 | 0.964 | 1.07 | 1.07 | 0.994 | 0.775 | 0.796 | 1 | 0.876 | 0.585 | 0.786 | 0.681 | 0.639 | 0.309 | 0.28 | 0.332 | 0.295 | 1.13 | 1 | 1.14 | 1.1
HOP-62 | 0.957 | 0.917 | 1.13 | 0.908 | 0.575 |  | 0.741 | 0.84 | 1 |  | 1.05 | 0.729 | 0.71 | 0.675 | 0.72 | 0.55 | 0.776 |  | 0.954 | 0.946
NCI-H727 | 0.474 | 0.318 | 0.348 | 0.386 |  | 0.346 | 0.361 | 0.28 |  | 0.757 | 1.04 | 0.82 | 0.511 | 0.488 | 0.536 | 0.533 |  | 0.346 | 0.316 | 0.245
LCLC-103H | 1.04 | 0.989 | 0.902 | 1.07 | 0.707 | 0.564 | 0.536 | 0.595 | 1.1 | 0.984 | 0.98 | 1.06 | 0.368 | 0.342 | 0.315 | 0.325 | 1.13 | 1.08 | 1.13 | 0.946
NCI-H1734 | 0.194 | 0.214 | 0.163 | 0.206 | 0.393 | 0.44 | 0.455 | 0.462 | 0.674 | 0.577 | 0.758 | 0.65 | 0.369 | 0.321 | 0.387 | 0.264 | 0.848 | 0.917 | 0.951 | 0.766
EKVX | 0.876 | 0.719 | 0.871 | 0.645 | 0.395 | 0.458 | 0.421 | 0.372 | 0.899 | 1.1 | 1.03 | 0.651 | 0.232 | 0.218 | 0.23 | 0.233 | 1.01 | 1.07 | 0.972 | 0.737
HARA | 0.918 | 0.884 | 0.973 | 0.804 | 0.401 | 0.432 | 0.358 | 0.26 | 1.16 | 1.05 | 0.936 | 0.998 | 0.538 | 0.5 | 0.463 | 0.515 | 0.907 | 0.989 | 1.14 | 0.836
EMC-BAC-2 | 1.32 | 1.19 | 1.21 | 1.05 | 0.511 | 0.51 | 0.534 | 0.48 | 0.794 | 0.753 | 0.764 | 0.709 | 0.541 | 0.498 | 0.526 | 0.465 | 0.785 | 0.796 | 0.821 | 0.774
PC-3 [JPC-3] | 0.663 | 0.661 | 0.732 | 0.538 | 0.798 | 0.741 | 0.84 | 0.763 | 1.01 | 1.02 | 0.966 | 0.985 | 0.494 | 0.461 | 0.459 | 0.453 | 1.05 | 1 | 0.902 | 0.972
NCI-H520 | 0.22 | 0.206 | 0.184 | 0.208 | 0.379 | 0.315 | 0.314 | 0.25 | 0.822 | 0.66 | 0.888 | 0.56 | 0.529 | 0.52 | 0.619 | 0.461 | 1.06 | 0.969 | 1.04 | 0.563
